Measurements as given in ChEMBL document CHEMBL1212880, “Discovery of (2,4-dihydroxy-5-isopropylphenyl)-[5-(4-methylpiperazin-1-ylmethyl)-1,3-dihydroisoindol-2-yl]methanone (AT13387), a novel inhibitor of the molecular chaperone Hsp90 by fragment based drug design” (J Med Chem, 2010).
In brackets after ≈: the same amount, converted by molar mass. Activity calls are given as the source filed them. No cut-off for these calls is given here.

How the values were obtained:
CYP3A4 = CYP3A4 (Homo sapiens, UniProt P08684); assay: Inhibition of CYP3A4 at 10 uM; type: ADME
Chain of CYP3A4 (P08684 whole entry): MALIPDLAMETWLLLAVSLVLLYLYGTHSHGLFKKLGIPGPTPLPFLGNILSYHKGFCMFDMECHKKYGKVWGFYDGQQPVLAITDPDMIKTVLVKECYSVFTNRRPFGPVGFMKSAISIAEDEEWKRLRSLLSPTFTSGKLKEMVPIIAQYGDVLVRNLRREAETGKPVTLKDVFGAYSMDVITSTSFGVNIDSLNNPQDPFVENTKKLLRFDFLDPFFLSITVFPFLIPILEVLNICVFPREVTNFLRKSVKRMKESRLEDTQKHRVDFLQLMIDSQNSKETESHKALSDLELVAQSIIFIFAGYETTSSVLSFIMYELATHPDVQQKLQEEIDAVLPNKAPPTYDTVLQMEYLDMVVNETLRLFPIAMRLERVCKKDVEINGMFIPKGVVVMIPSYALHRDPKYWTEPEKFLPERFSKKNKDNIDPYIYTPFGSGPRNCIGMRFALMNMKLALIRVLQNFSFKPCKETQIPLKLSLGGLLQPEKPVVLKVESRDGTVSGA

hERG (KCNH2) [1] = target: T1, hERG (KCNH2) (Homo sapiens, UniProt Q12809); assay: in vitro; settings: HEK293 cells expressing hERG
T1 sequence (Q12809 whole entry): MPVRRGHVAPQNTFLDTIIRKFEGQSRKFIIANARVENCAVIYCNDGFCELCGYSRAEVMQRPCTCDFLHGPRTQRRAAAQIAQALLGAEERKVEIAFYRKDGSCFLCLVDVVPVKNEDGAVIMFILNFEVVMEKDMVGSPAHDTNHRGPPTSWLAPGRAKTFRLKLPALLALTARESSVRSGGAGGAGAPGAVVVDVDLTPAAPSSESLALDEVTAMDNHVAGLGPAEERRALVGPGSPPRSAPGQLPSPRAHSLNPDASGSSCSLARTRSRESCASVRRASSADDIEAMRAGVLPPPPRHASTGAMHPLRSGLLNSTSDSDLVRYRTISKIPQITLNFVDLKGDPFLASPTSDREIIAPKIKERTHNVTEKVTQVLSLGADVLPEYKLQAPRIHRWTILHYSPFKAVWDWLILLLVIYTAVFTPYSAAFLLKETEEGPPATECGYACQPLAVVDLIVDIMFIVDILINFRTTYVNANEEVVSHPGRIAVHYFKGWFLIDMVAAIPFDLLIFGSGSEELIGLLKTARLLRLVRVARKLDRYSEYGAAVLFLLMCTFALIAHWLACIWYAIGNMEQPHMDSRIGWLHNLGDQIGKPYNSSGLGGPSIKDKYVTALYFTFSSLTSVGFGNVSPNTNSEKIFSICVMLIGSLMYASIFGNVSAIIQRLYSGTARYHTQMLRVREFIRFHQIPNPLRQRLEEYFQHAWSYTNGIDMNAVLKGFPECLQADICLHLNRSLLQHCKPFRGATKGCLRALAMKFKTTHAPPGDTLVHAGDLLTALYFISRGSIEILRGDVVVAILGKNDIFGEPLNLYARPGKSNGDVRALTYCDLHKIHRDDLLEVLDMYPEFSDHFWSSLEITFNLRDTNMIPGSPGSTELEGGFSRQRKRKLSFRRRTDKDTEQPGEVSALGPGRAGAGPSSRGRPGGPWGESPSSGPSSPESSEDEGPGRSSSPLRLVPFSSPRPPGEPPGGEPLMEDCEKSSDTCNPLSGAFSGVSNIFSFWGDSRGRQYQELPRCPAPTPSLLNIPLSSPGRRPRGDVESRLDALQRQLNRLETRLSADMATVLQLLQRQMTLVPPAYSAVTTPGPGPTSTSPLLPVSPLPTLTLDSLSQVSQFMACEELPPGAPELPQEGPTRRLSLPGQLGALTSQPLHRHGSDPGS
Description: Inhibition of human ERG expressed in HEK293 cells at 3 uM by patch clamp assay

hERG (KCNH2) [2] = target: T1, hERG (KCNH2); assay: in vitro; settings: HEK293 cells expressing hERG; remark: listed apart in the source
Description: Inhibition of human ERG expressed in HEK293 cells at 30 uM by patch clamp assay

[3] = Clearance in BALB/c mouse plasma at 10 mg/kg, iv; type: ADME, organism-based; design: dose 10 mg/kg, route intravenous
[4] = Drug level in human HCT116 cells xenografted nude BALB/c mouse tumor at 80 mg/kg, iv after 24 hrs; type: ADME, organism-based, Neoplasm, HCT-116; design: dose 80 mg/kg, route intravenous; settings: read-out: Drug uptake
[5] = Intrinsic clearance in mouse liver S9 fraction; type: ADME, subcellular; settings: for CL: s9
[6] = Dissociation constant, pKa of the compound; type: physicochemical
HCT-116 [7] = assay: Antitumor activity against human HCT116 cells xenografted in BALB/c mouse assessed as inhibition of tumor growth at 80 mg/kg, ip qd for 8 days measured on day 12; type: functional; settings: HCT-116, ip, route intraperitoneal
HCT-116 [8] = assay: Antitumor activity against human HCT116 cells xenografted in BALB/c mouse assessed as inhibition of tumor growth at 80 mg/kg, ip qd for 8 days measured on day 12 relative to control; type: functional; settings: HCT-116, ip, route intraperitoneal
HCT-116 [9] = assay: Antitumor activity against human HCT116 cells xenografted in BALB/c mouse assessed as delay in tumor growth at 80 mg/kg, ip qd for 8 days; type: functional; settings: route intraperitoneal
physchem = settings: buffer, pH 7.4
Cytochrome P450 2C9 = Cytochrome P450 2C9 (Homo sapiens, UniProt P11712); assay: Binding affinity to CYP2C9; type: ADME
Chain of Cytochrome P450 2C9 (P11712 whole entry): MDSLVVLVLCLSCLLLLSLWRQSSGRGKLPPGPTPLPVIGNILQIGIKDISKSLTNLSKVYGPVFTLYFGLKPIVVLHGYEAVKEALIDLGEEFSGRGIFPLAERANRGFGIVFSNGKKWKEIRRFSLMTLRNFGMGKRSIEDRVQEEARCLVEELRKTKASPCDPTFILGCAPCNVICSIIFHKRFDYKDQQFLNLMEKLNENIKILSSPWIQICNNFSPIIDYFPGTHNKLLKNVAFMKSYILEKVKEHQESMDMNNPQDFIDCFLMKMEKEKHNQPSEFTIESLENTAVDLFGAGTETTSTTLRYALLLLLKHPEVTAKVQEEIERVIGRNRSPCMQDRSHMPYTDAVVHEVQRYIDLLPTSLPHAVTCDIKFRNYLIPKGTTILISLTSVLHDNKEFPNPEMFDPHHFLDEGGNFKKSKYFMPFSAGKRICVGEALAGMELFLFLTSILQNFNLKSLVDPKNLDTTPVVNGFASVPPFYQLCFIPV

Cytochrome P450 2C19 = Cytochrome P450 2C19 (Homo sapiens, UniProt P33261); assay: Binding affinity to CYP2C19; type: ADME
Chain of Cytochrome P450 2C19 (P33261 whole entry): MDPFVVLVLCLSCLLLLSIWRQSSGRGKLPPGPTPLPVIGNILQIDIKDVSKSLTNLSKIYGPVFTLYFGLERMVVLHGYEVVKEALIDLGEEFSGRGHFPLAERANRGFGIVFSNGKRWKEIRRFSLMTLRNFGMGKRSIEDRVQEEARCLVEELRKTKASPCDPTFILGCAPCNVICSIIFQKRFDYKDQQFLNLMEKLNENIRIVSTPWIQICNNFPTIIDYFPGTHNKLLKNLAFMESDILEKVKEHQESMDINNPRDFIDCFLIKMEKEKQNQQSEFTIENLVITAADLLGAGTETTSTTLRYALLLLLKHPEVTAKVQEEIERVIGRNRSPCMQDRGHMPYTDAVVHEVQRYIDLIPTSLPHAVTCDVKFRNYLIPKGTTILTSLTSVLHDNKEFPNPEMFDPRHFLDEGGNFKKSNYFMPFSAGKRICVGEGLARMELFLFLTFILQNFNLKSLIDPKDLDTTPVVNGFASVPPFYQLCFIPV

CYP2C9 = CYP2C9 (Homo sapiens, UniProt P11712); assay: Inhibition of CYP2C9 at 10 uM; type: ADME
Chain of CYP2C9 (P11712 whole entry): as the sequence (P11712 whole entry) above

CYP2C19 = CYP2C19 (Homo sapiens, UniProt P33261); assay: Inhibition of CYP2C19 at 10 uM; type: ADME
Chain of CYP2C19 (P33261 whole entry): as the sequence (P33261 whole entry) above

[10] = Protein binding in human plasma after 6 hrs by equilibrium dialysis method; type: ADME, cell-free; settings: read-out: PPB (converted)
[11] = Protein binding in mouse plasma after 6 hrs by equilibrium dialysis method; type: ADME, cell-free; settings: read-out: PPB (converted)
[12] = Clearance in BALB/c mouse plasma at 2 to 10 mg/kg, iv; type: ADME, organism-based; design: dose 2-10 mg/kg, route intravenous
[13] = Volume of distribution at steady state in BALB/c mouse plasma at 2 to 10 mg/kg, iv; type: ADME, organism-based; design: dose 2-10 mg/kg, route intravenous; settings: read-out: Vdss
[14] = Half life in BALB/c mouse plasma at 2 to 10 mg/kg, iv; type: ADME, organism-based; design: dose 2-10 mg/kg, route intravenous
[15] = Half life in BALB/c mouse blood at 60 mg/kg, ip; type: ADME, organism-based; design: dose 60 mg/kg, route intraperitoneal
[16] = Half life in BALB/c mouse muscle at 60 mg/kg, ip; type: ADME, organism-based, Muscle tissue; design: dose 60 mg/kg, route intraperitoneal
[17] = Half life in human HCT116 cells xenografted BALB/c mouse tumor at 60 mg/kg, ip; type: ADME, organism-based, Neoplasm, HCT-116; design: dose 60 mg/kg, route intraperitoneal
HCT-116 [18] = assay: Induction of apoptosis in human HCT116 cells assessed as reduction of Raf-1 level at 30 nM after 18 hrs by immunoblotting; type: functional, cell-based
HCT-116 [19] = assay: Induction of apoptosis in human HCT116 cells assessed as reduction of CDK4 level at 30 nM after 18 hrs by immunoblotting; type: functional, cell-based
HCT-116 [20] = assay: Induction of apoptosis in human HCT116 cells assessed as upregulation of Hsp70 level at 10 nM after 18 hrs by immunoblotting; type: functional, cell-based
[21] = Oral bioavailability in BALB/c mouse; type: ADME, organism-based; settings: in vivo
HCT-116 [22] = assay: Antitumor activity against human HCT116 cells xenografted in BALB/c mouse assessed as inhibition of tumor growth at 60 mg/kg, ip qd for 3 days then no dose for 3 days for four dosing cycles measured on day 21; type: functional; settings: HCT-116, ip, route intraperitoneal
HCT-116 [23] = assay: Antitumor activity against human HCT116 cells xenografted in BALB/c mouse assessed as inhibition of tumor growth at 60 mg/kg, ip qd for 3 days then no dose for 3 days for four dosing cycles measured on day 21 relative to control; type: functional; settings: HCT-116, ip, route intraperitoneal
[24] = Solubility of the compound in acetate buffer at 15 mg at pH 5.5; type: physicochemical
[25] = Solubility of the compound in phosphate buffer at 15 mg at pH 6.5; type: physicochemical
[26] = Solubility of the compound in phosphate buffer at 15 mg at pH 5.5; type: physicochemical
[27] = Solubility of the compound in lactate buffer at 15 mg at pH 4.2; type: physicochemical
[28] = Chemical stability of the compound after 24 hrs; type: physicochemical
[29] = Chemical stability of the compound after 48 hrs; type: physicochemical
[30] = Chemical stability of the compound after 144 hrs; type: physicochemical
[31] = Thermal stability of the compound at 80 degC after 24 hrs; type: physicochemical
HCT-116 [32] = assay: Cytotoxicity against human HCT116 cells at 30 uM by Alamar blue assay; type: functional, cell-based
HCT-116 [33] = assay: Cytotoxicity against human HCT116 cells at 100 uM by Alamar blue assay; type: functional
[34] = Drug level in human HCT116 cells xenografted nude BALB/c mouse tumor at 40 mg/kg, iv after 24 hrs; type: ADME, organism-based, Neoplasm, HCT-116; design: dose 40 mg/kg, route intravenous; settings: read-out: Drug uptake
HCT-116 [35] = assay: Antitumor activity against human HCT116 cells xenografted in BALB/c mouse assessed as inhibition of tumor growth at 80 mg/kg, ip qd for 8 days measured on day 10; type: functional; settings: HCT-116, ip, route intraperitoneal
HCT-116 [36] = assay: Antitumor activity against human HCT116 cells xenografted in BALB/c mouse assessed as inhibition of tumor growth at 80 mg/kg, ip qd for 8 days measured on day 10 relative to control; type: functional; settings: HCT-116, ip, route intraperitoneal
HCT-116 [37] = assay: Cytotoxicity against human HCT116 cells at 10 uM by Alamar blue assay; type: functional

Work on `CC(C)c1cc(C(=O)N2Cc3cccc(N4CCN(C)CC4)c3C2)c(O)cc1O` yielded an inhibition at 10 µM (CYP3A4) of less than 50%, an inhibition at 3 µM (hERG (KCNH2) [1]) of 41% and an inhibition at 30 µM (hERG (KCNH2) [2]) of 87%.
With `CC(C)c1cc(C(=O)N2Cc3ccc(OCCN(C)C)cc3C2)c(O)cc1O` the clearance [3] was 170 mL/min/kg, the concentration at 24 h [4] was 11 µM and the CL [5] was 0.034 mL/min/kg. For the same compound, the pKa [6] was 7.85, the inhibition in vivo at 80 mg/kg (HCT-116 [7]) was 63% and the inhibition in vivo at 80 mg/kg (HCT-116 [8]) was 37%. The Activity (HCT-116 [9]) was 11.4 days, the inhibition at 10 µM (CYP3A4) was 34% and the logD (physchem) was 2.4. It also gave an inhibition at 3 µM (hERG (KCNH2) [1]) of 45% and an inhibition at 30 µM (hERG (KCNH2) [2]) of 87%.
For `CC(C)c1cc(C(=O)N2Cc3ccc(OCCN)cc3C2)c(O)cc1O`, the Activity (Cytochrome P450 2C9) was “Active”, the Activity (Cytochrome P450 2C19) was “Active” and the inhibition at 3 µM (hERG (KCNH2) [1]) was 11%. The inhibition at 30 µM (hERG (KCNH2) [2]) was 64%.
`CC(C)c1cc(C(=O)N2Cc3ccc(CN4CCN(C)CC4)cc3C2)c(O)cc1O` [ONALESPIB] showed a CL [5] of 0.046 mL/min/kg, a pKa [6] of 7.7 and an inhibition at 10 µM (CYP2C9) of less than 50%. It also gave an inhibition at 10 µM (CYP2C19) of less than 50%, a fraction unbound at 6 h [10] of 0.36 and a fraction unbound at 6 h [11] of 0.09. For the same compound, the clearance [12] was 113 mL/min/kg, the Vd [13] was 11 L/kg and the half-life [14] was 0.9 h. It also gave a half-life [15] of 4.7 h, a half-life [16] of 3 h and a half-life [17] of 65 h. For the same compound, the Activity (HCT-116 [18]) was “Active”, the Activity (HCT-116 [19]) was “Active” and the Activity (HCT-116 [20]) was “Active”. The bioavailability [21] was 31%, the inhibition in vivo at 60 mg/kg (HCT-116 [22]) was 78% and the inhibition in vivo at 60 mg/kg (HCT-116 [23]) was 22%. It also gave a solubility [24] greater than 30 mg/mL, a solubility [25] of 15 mg/mL (≈ 36.6 mM) and a solubility [26] greater than 30 mg/mL. The solubility [27] was greater than 30 mg/mL, the Stability [28] was “Stable” and the Stability [29] was “Stable”. For the same compound, the Stability [30] was “Stable”, the Stability [31] was “Stable” and the logD (physchem) was 2.7. The inhibition at 3 µM (hERG (KCNH2) [1]) was 7% and the inhibition at 30 µM (hERG (KCNH2) [2]) was 42%.
With `CC(C)c1c(O)cc(O)c(C(=O)N2Cc3ccccc3C2)c1F` the Activity (HCT-116 [32]) was “Not toxic” and the Activity (HCT-116 [33]) was 60%.
Work on `CC(C)c1cc(C(=O)N2Cc3ccc(OCCCN4CCOCC4)cc3C2)c(O)cc1O` yielded a pKa [6] of 6.9, a logD (physchem) of 3.3 and an inhibition at 3 µM (hERG (KCNH2) [1]) of 51%. For the same compound, the inhibition at 30 µM (hERG (KCNH2) [2]) was 95%.
In the case of `CC(C)c1cc(C(=O)N2Cc3ccc(N4CCNCC4)cc3C2)c(O)cc1O`, the pKa [6] is reported as 8.4, the fraction unbound at 6 h [10] is reported as 0.36 and the logD (physchem) is reported as 1.6. The inhibition at 3 µM (hERG (KCNH2) [1]) was 13% and the inhibition at 30 µM (hERG (KCNH2) [2]) was 70%.
With `CC(C)c1cc(C(=O)N2Cc3ccc(C(=O)N4CCN(C)CC4)cc3C2)c(O)cc1O` the pKa [6] was 6.8, the fraction unbound at 6 h [10] was 0.36 and the fraction unbound at 6 h [11] was 0.29. The logD (physchem) was 2.1, the inhibition at 3 µM (hERG (KCNH2) [1]) was 21% and the inhibition at 30 µM (hERG (KCNH2) [2]) was 49%.
Work on `CC(C)c1cc(C(=O)N2Cc3cccc(OCCN(C)C)c3C2)c(O)cc1O` yielded an inhibition at 10 µM (CYP3A4) of less than 50%, an inhibition at 3 µM (hERG (KCNH2) [1]) of 43% and an inhibition at 30 µM (hERG (KCNH2) [2]) of 93%.
`CC(C)c1cc(C(=O)N2Cc3ccc(N4CCN(C)CC4)cc3C2)c(O)cc1O` gave a clearance [3] of 130 mL/min/kg, a concentration at 24 h [34] of 6.5 µM and a microsomal CLint ([5]; liver S9 fraction) of 41 µL/min/mg. For the same compound, the pKa [6] was 7.3, the inhibition in vivo at 80 mg/kg (HCT-116 [35]) was 81% and the inhibition in vivo at 80 mg/kg (HCT-116 [36]) was 19%. It also gave an Activity (HCT-116 [9]) of 10.5 days, an Activity (HCT-116 [37]) of 0% and a logD (physchem) of 2.98. For the same compound, the inhibition at 3 µM (hERG (KCNH2) [1]) was 41% and the inhibition at 30 µM (hERG (KCNH2) [2]) was 87%.
Compound `CC(C)c1cc(C(=O)N2Cc3ccc(CN(C)C)cc3C2)c(O)cc1O` has a pKa [6] of 9.2, an inhibition at 10 µM (CYP2C9) of 50% and an inhibition at 10 µM (CYP2C19) of 50%. The fraction unbound at 6 h [10] was 0.36, the logD (physchem) was 2.1 and the inhibition at 3 µM (hERG (KCNH2) [1]) was 5%. For the same compound, the inhibition at 30 µM (hERG (KCNH2) [2]) was 57%.
